Reference: patent US20120115845A1, “THERAPEUTIC AGENTS” (priority 2007, published 2012)

Tests used:
human GHS receptor [1] = target: T1, human GHS receptor (Homo sapiens, UniProt Q92847); assay: h bind IC50 (binding assay, Table 1); details: human receptor; Table 1
human GHS receptor [2] = target: T1, human GHS receptor; assay: Ghrelin IP1 agonist assay (IP1 HTRF); type: cell-based; set-up: expressed in transfected cells; host or cells: HEK293s; details: for Emax: 2 h, agonist effect as % maximal effect of GHRP-6 (5 μM), read-out: h IP1 ag %; for EC50: HEK293s cells stably expressing human GHS receptor, 2 hours at 37° C., read-out: h IP1 ag EC50
In short: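 Cells: HEK293s stably expressing human GHS receptor, in stimulation buffer containing 0.02% fatty acid free BSA.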

T1 sequence (Q92847 whole entry): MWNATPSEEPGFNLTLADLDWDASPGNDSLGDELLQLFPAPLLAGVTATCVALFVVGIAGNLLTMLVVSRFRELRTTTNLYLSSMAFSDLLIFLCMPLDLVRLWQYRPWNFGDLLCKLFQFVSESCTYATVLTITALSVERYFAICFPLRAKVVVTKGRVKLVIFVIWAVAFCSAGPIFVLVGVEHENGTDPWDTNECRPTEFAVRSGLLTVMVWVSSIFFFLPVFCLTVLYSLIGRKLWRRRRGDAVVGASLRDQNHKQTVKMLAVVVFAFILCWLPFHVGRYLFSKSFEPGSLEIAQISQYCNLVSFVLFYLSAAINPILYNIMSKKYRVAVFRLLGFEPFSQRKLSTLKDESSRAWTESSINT

Compound	IC50 (human GHS receptor [1])	Emax (human GHS receptor [2])	EC50 (human GHS receptor [2])
COc1cc(Cl)c(C(=O)NC(=O)Nc2nc3ccc(S(=O)(=O)C4CCN(C)CC4)cc3s2)cc1-n1nccc1C [Example 265, 2-chloro-4-methoxy-5-(5-methyl-1H-pyrazol-1-yl)-N-(6-(1-methylpiperidin-4-ylsulfonyl)benzo [d]thiazol-2-ylcarbamoyl) benzamide]	0.0296 µM	0%	
CS(=O)(=O)c1ccc2nc(NC(=O)NC(=O)c3ccc(N4CCCC4)cc3Cl)sc2c1 [Example 117, 2-Chloro-N-[(6-methylsulfonylbenzothiazol-2-yl)carbamoyl]-4-pyrrolidin-1-yl-benzamide]	0.0378 µM	16.8%	0.0159 µM
CS(=O)(=O)c1ccc2nc(NC(=O)NC(=O)c3c(F)cccc3Cl)sc2c1 [Example 106, 2-Chloro-6-fluoro-N-[(6-methylsulfonylbenzothiazol-2-yl)carbamoyl]benzamide]	0.216 µM	12.9%	0.0328 µM
CS(=O)(=O)c1ccc2nc(NC(=O)NC(=O)c3ccccc3-n3cccc3)sc2c1 [Example 134, N-[(6-Methylsulfonylbenzothiazol-2-yl)carbamoyl]-2-pyrrol-1-yl-benzamide]	0.218 µM	63.9%	0.0133 µM
CS(=O)(=O)c1ccc2nc(NC(=O)NC(=O)c3cc(C4CC4)ccc3Cl)sc2c1 [Example 49, 2-Chloro-5-cyclopropyl-N-(6-(methylsulfonyl)benzothiazol-2-ylcarbamoyl)benzamide]	0.0129 µM	0%	≥ 25 µM
CS(=O)(=O)c1ccc2nc(NC(=O)NC(=O)c3cc(-n4ccnn4)ccc3Cl)sc2c1 [Example 47, 2-Chloro-5-[1,2,3]triazol-1-yl-N-(6-(methylsulfonyl)benzothiazol-2-ylcarbamoyl)benzamide]	0.0816 µM	0%	≥ 25 µM
CS(=O)(=O)c1ccc2nc(NC(=O)NC(=O)c3ccccc3COc3ccccc3)sc2c1 [Example 131, N-[(6-Methylsulfonylbenzothiazol-2-yl)carbamoyl]-2-(phenoxymethyl)benzamide]	0.229 µM	17.5%	0.191 µM

The remaining lines, values ahead:

IC50 (human GHS receptor [1])	Emax (human GHS receptor [2])	EC50 (human GHS receptor [2])	Compound
0.0124 µM	42.2%	0.0154 µM	CC1CN(CCCS(=O)(=O)c2ccc3nc(NC(=O)NC(=O)c4ccccc4Cl)sc3c2)CCN1 (centres unmarked) [Example 209, 2-Chloro-N-[[6-[3-(3-methylpiperazin-1-yl)propylsulfonyl]benzothiazol-2-yl]carbamoyl]benzamide]
0.0223 µM	39.2%	0.0185 µM	CC(C)(C)OC(=O)N1CCC(CCS(=O)(=O)c2ccc3nc(NC(=O)NC(=O)c4ccccc4Cl)sc3c2)CC1 [Example 218, tert-Butyl 4-[2-[2-[(2-chlorobenzoyl)carbamoylamino]benzothiazol-6-yl]sulfonylethyl]piperidine-1-carboxylate]
0.0773 µM	58.5%	0.00946 µM	CNCCS(=O)(=O)c1ccc2nc(NC(=O)NC(=O)c3ccccc3Cl)sc2c1 [Example 4, 2-Chloro-N-[[6-(2-methylaminoethylsulfonyl)benzothiazol-2-yl]carbamoyl]benzamide]
0.0178 µM	64.5%	0.0293 µM	O=C(NC(=O)c1ccccc1Cl)Nc1nc2ccc(S(=O)(=O)CC3CCNCC3)cc2s1 [Example 219, 2-Chloro-N-[[6-(4-piperidylmethylsulfonyl)benzothiazol-2-yl]carbamoyl]benzamide]
1.74 µM	9.06%	≥ 25 µM	CS(=O)(=O)c1ccc2nc(NC(=O)NC(=O)c3cc(CN4CCCC4)ccc3Cl)sc2c1 [Example 62, 2-Chloro-5-pyrrolidin-1-ylmethyl-N-(6-(methylsulfonyl)benzothiazol-2-ylcarbamoyl)benzamide]
0.0042 µM	8.13%	0.00428 µM	CCN(CC)CCCS(=O)(=O)c1ccc2nc(NC(=O)NC(=O)c3cc(N4CCOCC4)ccc3Cl)sc2c1 [Example 97, 2-Chloro-N-(6-(3-(diethylamino)propylsulfonyl)benzothiazol-2-ylcarbamoyl)-5-morpholinobenzamide]
